Source: US10457710B2, “Antimicrobial peptides, their variants and uses” (priority 2015, dated 2019)
Where a SMILES comes first, the peptide text is derived from it. [ ]: non-standard residue; d: D form.

Tests used:
Assay type in all cases: cell-based
C. parapsilosis = test: MIC, clinical yeast strains
Protocol: (§1) Minimum inhibition concetrations (MICs) were determined against Escherichia coli (ATCC 25922), Staphylococcus aureus (ATCC 25923), Klebsiella pneumoniae (ATCC 10031) and Pseudomonas aeruginosa (ATCC 27853). Also clinical strains of E. coli, K. pneumoniae, E. cloacae, P. aeruginosa, Serratia marcescens, Proteus mirabilis, S. pneumoniae, Acinetobacter baumannii, A. johnsonii and S. aureus were used for MICs assays. Additionally, clinical strains of yeast including Candida albicans, C. glabrata, C. parapsilosis and C. quillermondiae were used. The susceptibility of these microorganisms to Chain peptides were determined using micro broth dilution assay. Colonies of the respective microorganism from Muller Hinton (MH) agar plates incubated overnight were suspended in MH broth media and final concentration of microorganism was adjusted to 5.0×10^5 cfu/ml. An aliquot of 10 μl of each Chain peptide, or gentamicin, tetracycline as reference antibiotics were added in differing concentrations along with 90 μl of bacterial suspension to 96 well polypropylene plates and incubated at 37° C. for 20 to 24 hours. Concentrations of Chain peptides and reference antibiotics ranged from 0.125 to 128 μg/ml and the MICs were recorded as the lowest concentration with no visual growth of bacteria. Similarly, antifungal MICs were tested in Potato dextrose broth.
(§2) Clinical strains of yeasts including Candida albicans, C. glabrata, C. parapsilosis and C. quillermondiae were also tested with the 12 Chain peptides. The minimum inhibitory concentration (MICs) varied between these peptides and are presented in Tables 4a, 4b, 4c and 5a, 5b, 5c. Peptides Chain 105, 201 and 308 are broad spectrum antimicrobials with MICs between 0.5-32 μg/ml against all the bacteria and yeasts tested, except Serratia marcescens and Proteus mirabilis, against which the MICs were between 64-128 μg/ml. Peptide Chain 306 has narrow spectrum activity against E. coli at 1 μg/ml and for the rest of the bacterial strains at >32 μg/ml (FIG. 10c).

Candida albicans = test: MIC, clinical yeast strains
Protocol: as §1, §2

C. glabrata = test: MIC, clinical yeast strains
Protocol: as §1, §2

C. quillermondiae = test: MIC, clinical yeast strains; design: Minimum inhibitory concentration: unit: μg/ml; settings: C. quillermondiae clinical yeast strain 1
Protocol: as §1, §2

[1] = test system: clinical strains of K. pneumoniae; test: MIC, microdilution, clinical strains; settings: 0.02% BSA, 0.2% acetic acid
Protocol: as §1, §2

[2] = test system: clinical strains of Serratia marcescens; test: MIC, microdilution, clinical strains; settings: 0.02% BSA, 0.2% acetic acid
Protocol: as §1, §2

[3] = test system: clinical strains of E. coli; test: MIC, microdilution, clinical strains; settings: microdilution, Muller Hinton broth-cation adjusted, 0.02% BSA, 0.2% acetic acid
Protocol: as §1, §2

[4] = test system: clinical strains of S. aureus; test: MIC, microdilution, clinical strains; settings: 0.02% BSA, 0.2% acetic acid
Protocol: as §1, §2

[5] = test system: clinical strains of E. cloacae; test: MIC, microdilution, clinical strains; settings: 0.02% BSA, 0.2% acetic acid
Protocol: as §1, §2

[6] = test system: clinical strains of Proteus mirabilis; test: MIC, microdilution, clinical strains; settings: 0.02% BSA, 0.2% acetic acid
Protocol: as §1, §2

[7] = test system: clinical strains of S. pneumoniae; test: MIC, microdilution, clinical strains; settings: 0.02% BSA, 0.2% acetic acid
Protocol: as §1, §2

[8] = test system: clinical strains of P. aeruginosa; test: MIC, microdilution, clinical strains; settings: 0.02% BSA, 0.2% acetic acid
Protocol: as §1, §2

[9] = C. parapsilosis clinical yeast strain 1
[10] = C. parapsilosis clinical yeast strain 2
[11] = C. parapsilosis clinical yeast strain 3
[12] = C. parapsilosis clinical yeast strain 4
[13] = Candida albicans clinical yeast strain 1
[14] = Candida albicans clinical yeast strain 2
[15] = Candida albicans clinical yeast strain 3
[16] = Candida albicans clinical yeast strain 4
[17] = Candida albicans clinical yeast strain 5
[18] = C. glabrata clinical yeast strain 1
[19] = C. glabrata clinical yeast strain 2
[20] = C. glabrata clinical yeast strain 3
[21] = C. glabrata clinical yeast strain 4
[22] = Klebsiella pneumoniae strain 1, Muller Hinton broth-cation adjusted
[23] = Klebsiella pneumoniae strain 2, Muller Hinton broth-cation adjusted
[24] = Klebsiella pneumoniae strain 3, Muller Hinton broth-cation adjusted
[25] = Klebsiella pneumoniae strain 4, Muller Hinton broth-cation adjusted
[26] = Klebsiella pneumoniae strain 5, Muller Hinton broth-cation adjusted
[27] = Serratia marcescens strain 1, Muller Hinton broth-cation adjusted
[28] = Serratia marcescens strain 2, Muller Hinton broth-cation adjusted
[29] = Serratia marcescens strain 3, Muller Hinton broth-cation adjusted
[30] = Serratia marcescens strain 4, Muller Hinton broth-cation adjusted
[31] = Serratia marcescens strain 5, Muller Hinton broth-cation adjusted
[32] = Staphylococcus aureus strain 1, Muller Hinton broth-cation adjusted
[33] = Staphylococcus aureus strain 2, Muller Hinton broth-cation adjusted
[34] = Staphylococcus aureus strain 3, Muller Hinton broth-cation adjusted
[35] = Staphylococcus aureus strain 4, Muller Hinton broth-cation adjusted
[36] = Staphylococcus aureus strain 5, Muller Hinton broth-cation adjusted
[37] = Enterobacter cloacae strain 1, Muller Hinton broth-cation adjusted
[38] = Enterobacter cloacae strain 2, Muller Hinton broth-cation adjusted
[39] = Enterobacter cloacae strain 3, Muller Hinton broth-cation adjusted
[40] = Enterobacter cloacae strain 4, Muller Hinton broth-cation adjusted
[41] = Enterobacter cloacae strain 5, Muller Hinton broth-cation adjusted
[42] = Proteus mirabilis strain 1, Muller Hinton broth-cation adjusted
[43] = Proteus mirabilis strain 2, Muller Hinton broth-cation adjusted
[44] = Proteus mirabilis strain 3, Muller Hinton broth-cation adjusted
[45] = Proteus mirabilis strain 4, Muller Hinton broth-cation adjusted
[46] = Proteus mirabilis strain 5, Muller Hinton broth-cation adjusted
[47] = Streptococcus pneumoniae strain 1, Muller Hinton broth-cation adjusted
[48] = Streptococcus pneumoniae strain 2, Muller Hinton broth-cation adjusted
[49] = Streptococcus pneumoniae strain 3, Muller Hinton broth-cation adjusted
[50] = Streptococcus pneumoniae strain 4, Muller Hinton broth-cation adjusted
[51] = Streptococcus pneumoniae strain 5, Muller Hinton broth-cation adjusted
[52] = Pseudomonas aeruginosa strain 1, Muller Hinton broth-cation adjusted
[53] = Pseudomonas aeruginosa strain 2, Muller Hinton broth-cation adjusted
[54] = Pseudomonas aeruginosa strain 3, Muller Hinton broth-cation adjusted
[55] = Pseudomonas aeruginosa strain 4, Muller Hinton broth-cation adjusted
[56] = Pseudomonas aeruginosa strain 5, Muller Hinton broth-cation adjusted

CC(C)C[C@@H](NC(=O)[C@H](N)CCCNC(=N)N)C(=O)N[C@H](CCCCN)C(=O)N[C@H](Cc1c[nH]c2ccccc12)C(=O)N[C@H](Cc1ccccc1)C(=O)N[C@H](Cc1c[nH]c2ccccc12)C(=O)N[C@H](CC(C)C)C(=O)N[C@H](Cc1ccccc1)C(=O)N[C@H](CCCNC(=N)N)C(=O)N[C@H](CCCCN)C(=O)N[C@H](CCCNC(=N)N)C(=O)O [Chain307D] (H-[dR][dL][dK][dW][dF][dW][dL][dF][dR][dK][dR]-OH)
Minimum inhibitory concentration (C. parapsilosis; [9]): 16
Minimum inhibitory concentration (C. parapsilosis; [10]): 8
Minimum inhibitory concentration (C. parapsilosis; [11]): 8
Minimum inhibitory concentration (C. parapsilosis; [12]): 8
Minimum inhibitory concentration (Candida albicans; [13]): 16
Minimum inhibitory concentration (Candida albicans; [14]): 16
Minimum inhibitory concentration (Candida albicans; [15]): 16
Minimum inhibitory concentration (Candida albicans; [16]): 16
Minimum inhibitory concentration (Candida albicans; [17]): 16
Minimum inhibitory concentration (C. glabrata; [18]): 8
Minimum inhibitory concentration (C. glabrata; [19]): 16
Minimum inhibitory concentration (C. glabrata; [20]): 8
Minimum inhibitory concentration (C. glabrata; [21]): 16
Minimum inhibitory concentration (C. quillermondiae): 4
Minimum inhibitory concentration [1, 22]: 8
Minimum inhibitory concentration [1, 23]: 8
Minimum inhibitory concentration [1, 24]: 16
Minimum inhibitory concentration [1, 25]: 16
Minimum inhibitory concentration [1, 26]: 4
Minimum inhibitory concentration [2, 27]: >128
Minimum inhibitory concentration [2, 28]: >128
Minimum inhibitory concentration [2, 29]: 128
Minimum inhibitory concentration [2, 30]: >128
Minimum inhibitory concentration [2, 31]: >128
Minimum inhibitory concentration ([3]; Escherichia coli strain 1): 4
Minimum inhibitory concentration ([3]; Escherichia coli strain 2): 4
Minimum inhibitory concentration ([3]; Escherichia coli strain 3): 4
Minimum inhibitory concentration ([3]; Escherichia coli strain 4): 2
Minimum inhibitory concentration ([3]; Escherichia coli strain 5): 4
Minimum inhibitory concentration [4, 32]: 2
Minimum inhibitory concentration [4, 33]: 2
Minimum inhibitory concentration [4, 34]: 2
Minimum inhibitory concentration [4, 35]: 2
Minimum inhibitory concentration [4, 36]: 2
Minimum inhibitory concentration [5, 37]: 4
Minimum inhibitory concentration [5, 38]: 8
Minimum inhibitory concentration [5, 39]: 4
Minimum inhibitory concentration [5, 40]: 4
Minimum inhibitory concentration [5, 41]: 4
Minimum inhibitory concentration [6, 42]: >128
Minimum inhibitory concentration [6, 43]: 128
Minimum inhibitory concentration [6, 44]: 128
Minimum inhibitory concentration [6, 45]: >128
Minimum inhibitory concentration [6, 46]: >128
Minimum inhibitory concentration [7, 47]: 4
Minimum inhibitory concentration [7, 48]: 4
Minimum inhibitory concentration [7, 49]: 4
Minimum inhibitory concentration [7, 50]: 2
Minimum inhibitory concentration [7, 51]: 2
Minimum inhibitory concentration [8, 52]: 16
Minimum inhibitory concentration [8, 53]: 16
Minimum inhibitory concentration [8, 54]: 16
Minimum inhibitory concentration [8, 55]: 8
Minimum inhibitory concentration [8, 56]: 8

CC(C)C[C@@H](NC(=O)[C@@H](Cc1c[nH]c2ccccc12)NC(=O)[C@@H](Cc1ccccc1)NC(=O)[C@@H](Cc1c[nH]c2ccccc12)NC(=O)[C@@H](CCCCN)NC(=O)[C@@H](CCCNC(=N)N)NC(=O)[C@H](N)Cc1c[nH]c2ccccc12)C(=O)N[C@H](Cc1ccccc1)C(=O)N[C@H](CCCCN)C(=O)N[C@H](CCCCN)C(=O)N[C@H](CCCNC(=N)N)C(=O)O [Chain309D] (H-[dW][dR][dK][dW][dF][dW][dL][dF][dK][dK][dR]-OH)
Minimum inhibitory concentration (C. parapsilosis; [9]): 64
Minimum inhibitory concentration (C. parapsilosis; [10]): 64
Minimum inhibitory concentration (C. parapsilosis; [11]): 32
Minimum inhibitory concentration (C. parapsilosis; [12]): 16
Minimum inhibitory concentration (Candida albicans; [13]): 32
Minimum inhibitory concentration (Candida albicans; [14]): 32
Minimum inhibitory concentration (Candida albicans; [15]): 16
Minimum inhibitory concentration (Candida albicans; [16]): 16
Minimum inhibitory concentration (Candida albicans; [17]): 32
Minimum inhibitory concentration (C. glabrata; [18]): 32
Minimum inhibitory concentration (C. glabrata; [19]): 64
Minimum inhibitory concentration (C. glabrata; [20]): 4
Minimum inhibitory concentration (C. glabrata; [21]): 128
Minimum inhibitory concentration (C. quillermondiae): 8
Minimum inhibitory concentration [1, 22]: 128
Minimum inhibitory concentration [1, 23]: 32
Minimum inhibitory concentration [1, 24]: >128
Minimum inhibitory concentration [1, 25]: 32
Minimum inhibitory concentration [1, 26]: 128
Minimum inhibitory concentration [2, 27]: >128
Minimum inhibitory concentration [2, 28]: >128
Minimum inhibitory concentration [2, 29]: >128
Minimum inhibitory concentration [2, 30]: >128
Minimum inhibitory concentration [2, 31]: >128
Minimum inhibitory concentration ([3]; Escherichia coli strain 1): 0.5
Minimum inhibitory concentration ([3]; Escherichia coli strain 2): 32
Minimum inhibitory concentration ([3]; Escherichia coli strain 3): 16
Minimum inhibitory concentration ([3]; Escherichia coli strain 4): 32
Minimum inhibitory concentration ([3]; Escherichia coli strain 5): 16
Minimum inhibitory concentration [4, 32]: 8
Minimum inhibitory concentration [4, 33]: 16
Minimum inhibitory concentration [4, 34]: 8
Minimum inhibitory concentration [4, 35]: 8
Minimum inhibitory concentration [4, 36]: 8
Minimum inhibitory concentration [5, 37]: >128
Minimum inhibitory concentration [5, 38]: 128
Minimum inhibitory concentration [5, 39]: 64
Minimum inhibitory concentration [5, 40]: 64
Minimum inhibitory concentration [5, 41]: 32
Minimum inhibitory concentration [6, 42]: >128
Minimum inhibitory concentration [6, 43]: >128
Minimum inhibitory concentration [6, 44]: >128
Minimum inhibitory concentration [6, 45]: >128
Minimum inhibitory concentration [6, 46]: >128
Minimum inhibitory concentration [7, 47]: 64
Minimum inhibitory concentration [7, 48]: 64
Minimum inhibitory concentration [7, 49]: 64
Minimum inhibitory concentration [7, 50]: 64
Minimum inhibitory concentration [7, 51]: 64
Minimum inhibitory concentration [8, 52]: 16
Minimum inhibitory concentration [8, 53]: 32
Minimum inhibitory concentration [8, 54]: 16
Minimum inhibitory concentration [8, 55]: 32
Minimum inhibitory concentration [8, 56]: 8
